Measurements: patent publication US20060159669A1, “Novel uses of PPAR modulators and professional APCs manipulated by the same” (priority 2003, published 2006)
“Also recorded” adds a separate entry of the source. Blank lines part the entries; values can stand above or below the compound they belong to.

Assays:
PPARg = target: T1, PPARg (Homo sapiens, UniProt P37231); assay: FABP4 and other PPARg target gene mRNA expression by real-time RT-PCR in differentiating monocyte-derived DC; assay type: cell-based; conditions: for Induction of FABP4 by receptor-specific agonists: IDC, 2.5 microM RSG, 200 nM GW7845, 1 microM GW501516, 20 microM WY14643, 1 microM T0901317, FIG. 5A
T1 construct: endogenous in cells; host or cells: human monocyte-derived dendritic cells (CD14+ monocytes from buffy coats, GM-CSF + IL-4)
T1 sequence (P37231 1-505): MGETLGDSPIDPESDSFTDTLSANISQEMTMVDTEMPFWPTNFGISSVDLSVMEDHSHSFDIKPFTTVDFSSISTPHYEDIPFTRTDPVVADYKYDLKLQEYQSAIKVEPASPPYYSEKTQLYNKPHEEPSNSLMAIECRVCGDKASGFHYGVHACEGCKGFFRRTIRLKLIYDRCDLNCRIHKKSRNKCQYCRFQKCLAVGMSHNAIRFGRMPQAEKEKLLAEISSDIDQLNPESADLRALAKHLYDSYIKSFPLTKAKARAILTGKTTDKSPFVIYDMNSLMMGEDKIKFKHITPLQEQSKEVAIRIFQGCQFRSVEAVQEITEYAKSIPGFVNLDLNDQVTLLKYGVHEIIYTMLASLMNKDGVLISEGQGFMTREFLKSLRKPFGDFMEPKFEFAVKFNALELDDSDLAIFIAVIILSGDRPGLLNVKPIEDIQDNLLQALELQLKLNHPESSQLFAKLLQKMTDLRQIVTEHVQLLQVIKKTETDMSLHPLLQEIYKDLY
Procedure: DC generation and maturation. Highly enriched monocytes (98% CD14+) were obtained from buffy coats of healthy donors (provided by the local blood center) by Ficoll gradient centrifugation and immunomagnetic cell separation using anti-CD14-conjugated microbeads (VarioMACS; Miltenyi Biotec). […] Cells were cultured for 5 or 6 days and the IL-4 and GM-CSF addition was repeated at day 2 to obtain a population of immature DCs. In some experiments FBS was replaced with human AB serum (Sigma).
(§1) Ligands or vehicle control (50% DMSO/ethanol) were added to the cell culture starting from the first day.
(§2) Real-time RT-PCR. […] The following primers and probes were used: […]

CD1d = CD1d mRNA expression (RT-PCR, Affymetrix microarray) in monocyte-derived DC; assay type: cell-based, human; conditions: IDC; for Induction of CD1d by receptor-specific agonists: 2.5 microM RSG, 200 nM GW7845, 1 microM GW501516, 20 microM WY14643, 1 microM T0901317, FIG. 5B
Procedure: DC generation and maturation. Highly enriched monocytes (98% CD14+) were obtained from buffy coats of healthy donors (provided by the local blood center) by Ficoll gradient centrifugation and immunomagnetic cell separation using anti-CD14-conjugated microbeads (VarioMACS; Miltenyi Biotec). Human monocyte-derived IDCs were prepared as described previously (Sallusto and Lanzavecchia, 1994) with minor modification. In brief, monocytes were resuspended into six-well culture dishes at a density of 1.5×10^6 cells/ml and cultured in RPMI 1640 supplemented with 10% FBS (Invitrogen), containing 800 U/ml GM-CSF (Leucomax) and 500 U/ml IL-4 (Peprotech). Cells were cultured for 5 or 6 days and the IL-4 and GM-CSF addition was repeated at day 2 to obtain a population of immature DCs. In some experiments FBS was replaced with human AB serum (Sigma). To obtain MDCs, IDCs were treated with a mixture of cytokines: 10 ng/ml TNF-alpha (Peprotech), 10 ng/ml IL-1beta (Peprotech), 1000 U/ml IL-6 (Peprotech), 1 microg/ml PGE2 (Sigma) and 800 U/ml GM-CSF for 24 hr (Jonuleit et al., 1997).
as §1
Microarray experiment. Total RNA was isolated using Trizol Reagent (Invitrogen) and further purified by using the RNeasy kit (Quiagen). cRNA was generated from 5 microg of total RNA by using the SuperScript Choice kit (Invitrogen) and the High Yield RNA transcription labeling kit (Enzo Diagnostics). Fragmented cRNA was hybridized to Affymetrix (Santa Clara, Calif.) arrays (HU95A) according to Affymetrix standard protocols. Preliminary data analysis was performed by the Microarray Core Facility at University of California at Irvine. Further analysis was performed using GeneSpring 6.0 (Silicon Genetics, Redwood City, Calif.). These analyses provided a signal for each specific transcript that was subsequently normalized by comparing to the median signal (arbitrary value of 1.0) obtained from the whole array.
as §2

iNKT cells = assay: Expansion of iNKT cells by alpha-GalCer pulsed DC in autologous PBMC coculture; assay type: cell-based, human; conditions: for Induction of iNKT (Valpha24+ Vbeta11+) cell expansion vs untreated DC: 5-day coculture
Procedure: FACS analysis. Cell staining was performed using alpha-GalCer-loaded APC-labeled CD1d-tetramer (kindly provided by A. Herbelin) and FITC-, Cyc- or PE-conjugated mAbs. Labeled antibodies for flow cytometry included anti-CD161-Cyc, CD8-PE, CD25-PE, CD1a-PE, CD1d-PE, CD86-PE, CD83-PE, CD206-PE, CD3- FITC, CD36-FITC, CD80-FITC, CD209-FITC, HLA-DR-FITC and isotype-matched controls (BD PharMingen), anti-Vbetal 1-PE and anti-Valpha24-FITC (Immunotech). The cells were assessed for fluorescence intensity using EPICS Elite flow cytometer (Beckman Coulter) or with FACS Calibur cytometer (Beckton Dickinson). Data analysis was performed using WinMDI software (Joseph Trotter, The Scripps Research Institute, La Jolla, Calif.).
Expansion of iNKT cells. IDCs were treated with or without the inflammatory mixture as described previously and with 100ng/ml alpha-GalCer for 24 hr to obtain alpha-GalCer-loaded MDC or IDC, respectively. alpha-GalCer pulsed IDCs or MDCs (2×10^5 cells/ml) were cocultured with 2×10^6 monocyte depleted autologous PBMC for 5 days in 24 well plates. The expansion of iNKT cells was monitored by quantifying Valpha24+ Vbetal 1+ and Valpha24+ CD161+ cells by FACS analysis. The specificity of CD1d-restricted NKT cells was also verified by alpha-GalCer loaded APC-labelled CD1d tetramer staining.

SMILES: CN(CCOc1ccc(CC2SC(=O)NC2=O)cc1)c1ccccn1 (stereo not shown) [RSG, Rosiglitazone]
Induction of iNKT (Valpha24+ Vbeta11+) cell expansion vs untreated DC (iNKT cells; alpha-GalCer loaded RSG treated IDC, depending on the donor): 1.5-10.25 fold
Induction of iNKT (Valpha24+ Vbeta11+) cell expansion vs untreated DC (iNKT cells; alpha-GalCer loaded RSG treated MDC as stimulator): 1.1-4 fold

SMILES: Cc1cccc(Nc2cc(Cl)nc(SCC(=O)O)n2)c1C [Wy14,643]
Induction of FABP4 by receptor-specific agonists (PPARg): much less potently

SMILES: O=S(=O)(c1ccccc1)N(CC(F)(F)F)c1ccc(C(O)(C(F)(F)F)C(F)(F)F)cc1 [T0901317]
Induction of CD1d by receptor-specific agonists (CD1d): failed to activate CD1d

SMILES: CCCCCCCCCCCCCCCCCCCCCCCCCC(=O)N[C@@H](CO[C@H]1O[C@H](CO)[C@H](O)[C@H](O)[C@H]1O)[C@H](O)[C@H](O)CCCCCCCCCCCCCC [alpha-GalCer, alpha-galactosyl-ceramide]
Expansion of Valpha24+ Vbeta11+ iNKT cells by glycolipid loading of DC (iNKT cells; DC pulsed with 100ng/ml alpha-GalCer for 24 hr, 5 days coculture): necessary for the potent induction; also recorded: remarkable expansion of iNKT cells

Further lines, with some results ahead:

Block of the more pronounced FABP4 increase in human AB serum (PPARg; 5 microM GW9662, FBS replaced with human AB serum): blocked effectively
SMILES: O=C(Nc1ccccc1)c1cc([N+](=O)[O-])ccc1Cl [GW9662]
Inhibition of FABP4 up-regulation by PPARg antagonist (PPARg; 5 microM GW9662, untreated and 2.5 microM RSG treated DC): able to prevent the up-regulation of FABP4; also recorded: inhibited
Inhibition of PPARg specific induction of CD1d by antagonist (CD1d; 5 microM GW9662 with 2.5 microM RSG): inhibited

Induction of FABP4 by receptor-specific agonists (PPARg): specifically up-regulated
Induction of CD1d by receptor-specific agonists (CD1d): turn on gene expression
SMILES: COC(=O)c1ccccc1N[C@@H](Cc1ccc(OCCc2nc(-c3ccccc3)oc2C)cc1)C(=O)O [GW7845]
